Results on two compounds are retold here after article PMC10005301, “Prediction of the n-Octanol/Water Partition Coefficients of Basic Compounds Using Multi-Parameter QSRR Models Based on IS-RPLC Retention Behavior in a Wide pH Range” (Molecules, 2023).

For series [1] the following is noted: ref database module of ACD/Labs software, cited from earlier work.
On the set-up of series [2]: method as in UFZ-LSER database. The note with it: hydrogen bonding parameter B; ref UFZ-LSER database; cited from earlier work.
The nature of series [3]: logD determined by multi-parameter QSRR models from IS-RPLC logkw. The conditions noted are these: IS-RPLC retention (logkw). The method, then:
Multi-parameter QSRR models including logD, logkw, ne, A, and B were established using the multiple linear regression (MLR) method. In the process of linear fitting, ne, A, B, and their different combinations were introduced to optimize the models.
The logD values reported in the literature for these four compounds were calculated using Equation (S3) with corresponding pKa, logP, and pH values.
At each pH, the retention time (tR) of every analyte was determined for at least four different volume fractions (φ) of methanol. All the tR values of the solutes were obtained by averaging the results of at least three independent injections. The tR value was corrected using dual-point retention time correction (DP-RTC). For a detailed description of the process, refer to our previous work. For the different hydrophobicities of the studied compounds, benzene, toluene, and benzyl alcohol were used as anchor compounds in the DP-RTC method. The dead time t0 was determined using uracil. For each solute, the logarithm of k was plotted against φ, and logkw was obtained using the Equation (S1). The logD values of the model compounds were calculated using Equation (S3), and the logD–logkw models were established with Equation (S4). The statistical analysis for the regression model was accomplished using Origin 9.4.

For series [4] the following is noted: ref database module of ACD/Labs software, cited from earlier work; for pKa: Table 4, verification compounds.
The conditions of series [5]: for logDpH 7.0: pH 7; for logDpH 8.0: pH 8; for logDpH 9.0: pH 9; for logDpH 10.0: pH 10.
The nature of series [6]: IS-RPLC retention on silica-based C18 column, logkw by linear solvent strength model. The class given is physicochemical. The note with it: methanol/20 mmol/L ammonium phosphate buffer, Welch Xtimate C18, 30 °C, 100% aqueous extrapolation.
Where [7] appears, read: Table 4, verification compounds.

Read-outs that look alike come from different tables or passages of the source.

Regarding `Nc1ccc(Br)cc1` [4-Bromoaniline], the logP in series [1] (setting [7]) was 2.05. In addition, the logP in series [1] (n-octanol/water) is 2.05. Also, the B in series [2] is listed as 1.19. For the same compound, the chromatographic logD in series [3] (pH 7) was 1.83. In addition, in series [3] (pH 8), the chromatographic logD stood at 1.81. Besides, the chromatographic logD in series [3] (pH 9) was determined as 1.85. Further, the chromatographic logD in series [3] (pH 10) worked out at 1.81. Besides, in series [4], the pKa is given as 3.89 and the pKa1 was 3.89. In series [5], the “logDpH 7.0” value is on record as 1.74, the “logDpH 8.0” value is given as 1.74, the “logDpH 9.0” value came to 1.74 and the “logDpH 10.0” value was 1.74. In series [6], the “logkw-pH 7.0” value is listed as 1.91, the “logkw-pH 8.0” value is listed as 1.98, the “logkw-pH 9.0” value was 1.99 and the “logkw-pH 10.0” value is reported as 1.99.

Regarding `c1ccc(CNCc2ccccc2)cc1` [Dibenzylamine], in series [1] (setting [7]), the logP was 3.03. Moreover, in series [1] (n-octanol/water), the logP is on record as 3.03. In addition, the B in series [2] was 1.30. Moreover, in series [3] (pH 7), the chromatographic logD was found to be 1.52. In series [3] (pH 8), the chromatographic logD was 2.36. In series [3] (pH 9), the chromatographic logD was 2.81. For the same compound, the chromatographic logD in series [3] (pH 10) worked out at 3. Further, in series [4], the pKa was 8.76 and the pKa1 was 8.76. Further, in series [5], the “logDpH 7.0” value is recorded as 1.26, the “logDpH 8.0” value was 2.20, the “logDpH 9.0” value turned out to be 2.83 and the “logDpH 10.0” value worked out at 3.01. Further, in series [6], the “logkw-pH 7.0” value is listed as 2.42, the “logkw-pH 8.0” value is listed as 2.99, the “logkw-pH 9.0” value is reported as 3.28 and the “logkw-pH 10.0” value was 4.54.

A word on the logP: it is the decadic logarithm of the partition coefficient of the neutral form, usually between octanol and water. For orientation: chromatographic logD means lipophilicity estimated from chromatographic retention. One may read the pKa as the negative logarithm of the acid dissociation constant.
